Blank lines part the entries; values can stand above or below the molecule they belong to.
Experiments:
[1] = test system: T1, Frp1 (27.0 kDa ferric reductase); test: initial rate of A340 decrease, Lineweaver-Burk; assay type: biochemical, Pseudomonas putida; conditions: anaerobic, DCPIP as terminal acceptor
T1 construct: native purification from camphor-grown cells; chromosome-coded

[2] = test system: T2, Frp2 (28.5 kDa ferric reductase); test: initial rate of A340 decrease, Lineweaver-Burk; assay type: biochemical, Pseudomonas putida; conditions: anaerobic, DCPIP as terminal acceptor
T2 construct: native purification from camphor-grown cells; chromosome-coded

[3] = biological target: T3, 2,5-DKCMO (2,5-diketocamphane monooxygenase; 25DKCMO); test: spectrophotometric titration at […] nm; assay type: binding, Pseudomonas putida; conditions: aerobic, Tris-HCl pH 7.6, 10 µM FMN
T3 construct: gene camE25-1; oxygenating subunit, native purification from camphor-grown cells; CAM plasmid-coded; homodimer; nine Trp per monomer

[4] = biological target: T4, 3,6-DKCMO (3,6-diketocamphane monooxygenase; 36DKCMO) (Pseudomonas putida, UniProt D7UER1); test: spectrophotometric titration at […] nm; assay type: binding
T4 construct: gene camE36; oxygenating subunit, native purification from camphor-grown cells; CAM plasmid-coded; homodimer; five Trp per monomer
T4 sequence (D7UER1 1-378): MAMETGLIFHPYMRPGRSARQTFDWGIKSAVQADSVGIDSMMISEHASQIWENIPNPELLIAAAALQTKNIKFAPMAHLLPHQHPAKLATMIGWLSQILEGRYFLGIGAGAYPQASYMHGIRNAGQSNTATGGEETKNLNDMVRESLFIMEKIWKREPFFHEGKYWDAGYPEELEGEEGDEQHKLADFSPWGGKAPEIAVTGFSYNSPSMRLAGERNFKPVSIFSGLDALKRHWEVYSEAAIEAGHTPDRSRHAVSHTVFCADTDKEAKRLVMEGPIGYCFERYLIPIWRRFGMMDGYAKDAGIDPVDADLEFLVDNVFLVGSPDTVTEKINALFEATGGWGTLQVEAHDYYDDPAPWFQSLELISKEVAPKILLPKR

[5] = biological target: T4, 3,6-DKCMO (3,6-diketocamphane monooxygenase; 36DKCMO); test: tryptophan fluorescence quenching titration (ex […] nm, em […] nm); assay type: binding
[6] = biological target: T3, 2,5-DKCMO (2,5-diketocamphane monooxygenase; 25DKCMO); test: as above; assay type: binding, Pseudomonas putida; conditions: anaerobic, 60 mM Tris/HCl pH 7.6, 10 µM enzyme; FNR made by photoreduction with EDTA
[7] = substrate: NC(=O)C1=CN([C@@H]2O[C@H](COP(=O)(O)OP(=O)(O)OC[C@H]3O[C@@H](n4cnc5c(N)ncnc54)[C@H](O)[C@@H]3O)[C@@H](O)[C@H]2O)C=CC1; test: initial rate of A340 decrease, Lineweaver-Burk; assay type: biochemical, Pseudomonas putida; conditions: anaerobic
[8] = substrate: Cc1cc2nc3c(=O)[nH]c(=O)nc-3n(C[C@H](O)[C@H](O)[C@H](O)COP(=O)(O)O)c2cc1C; test: initial rate of A340 decrease, Lineweaver-Burk; assay type: biochemical, Pseudomonas putida; conditions: anaerobic, 60 mM Tris/HCl pH 7.6, NADH as donor, cytochrome c as terminal acceptor
[9] = 60 mM Tris/HCl pH 7.6, NADH as donor
[10] = 60 mM Tris/HCl pH 7.6, FMN as acceptor
[11] = 60 mM Tris/HCl pH 7.6, 10 µM putidaredoxin plus 30 µM cytochrome c as acceptor

Km ([1]; 60 mM Tris/HCl pH 7.6, NADH as donor, kcat as printed although text calls FAD activity much lower): 68.8 µM
Molecule: Cc1cc2nc3c(=O)[nH]c(=O)nc-3n(C[C@H](O)[C@H](O)[C@H](O)COP(=O)(O)OP(=O)(O)OC[C@H]3O[C@@H](n4cnc5c(N)ncnc54)[C@H](O)[C@@H]3O)c2cc1C [FAD]

Km [2, 10]: 36 µM
Km [1, 10]: 23 µM
Molecule: NC(=O)C1=CN([C@@H]2O[C@H](COP(=O)(O)OP(=O)(O)OC[C@H]3O[C@@H](n4cnc5c(N)ncnc54)[C@H](O)[C@@H]3O)[C@@H](O)[C@H]2O)C=CC1 [NADH]

Km [2, 10]: 92 µM
Molecule: NC(=O)C1=CN([C@@H]2O[C@H](COP(=O)(O)OP(=O)(O)OC[C@H]3O[C@@H](n4cnc5c(N)ncnc54)[C@H](OP(=O)(O)O)[C@@H]3O)[C@@H](O)[C@H]2O)C=CC1 [NADPH]

More lines, now with the values behind:

Molecule: Cc1cc2nc3c(=O)[nH]c(=O)nc-3n(C[C@H](O)[C@H](O)[C@H](O)COP(=O)(O)O)c2cc1C [FMN]
Km [2, 9]: 8.6 µM
Km [1, 9]: 6.9 µM
Kd [3]: 109 µM
Kd [4]: 125 µM

Molecule: Cc1cc2c(cc1C)N(C[C@H](O)[C@H](O)[C@H](O)COP(=O)(O)O)c1[nH]c(=O)[nH]c(=O)c1N2 [FNR]
Kd [5]: 0.24 µM
Kd [6]: 0.21 µM

B1: Fred (Pseudomonas putida) (protein)
chain: TKVAAEIVRSAIDPQWFRAVLGQYPTGVCAVTAMDPDGKMSGMAVGSFTSVSLNPPLVAFLPDRSSTSWPKIERAGKFCVNVLSDQQLGVCKRFASKDEDKFSGLVYRLSDNGSPIIEGVVAWIDCDLHSVQEAGDHYIVIGSVRELQVESEDSALLFYRGGYGGFAAI
notes: native purification from camphor-grown cells; chromosome-coded; 36 kDa homodimer
Km ([7]; 60 mM Tris/HCl pH 7.6, FMN as acceptor, cytochrome c as terminal acceptor): 28 µM
Km [8]: 4.2 µM
kcat [8]: 294 s⁻¹

B2: PdR (putidaredoxin reductase) (Pseudomonas putida) (protein)
chain: MNANDNVVIVGTGLAGVEVAFGLRASGWEGNIRLVGDATVIPHHLPPLSKAYLAGKATAESLYLRTPDAYAAQNIQLLGGTQVTAINRDRQQVILSDGRALDYDRLVLATGGRPRPLPVASGAVGKANNFRYLRTLEDAECIRRQLIADNRLVVIGGGYIGLEVAATAIKANMHVTLLDTAARVLERVTAPPVSAFYEHLHREAGVDIRTGTQVCGFEMSTDQQKVTAVLCEDGTRLPADLVIAGIGLIPNCELASAAGLQVDNGIVINEHMQTSDPLIMAVGDCARFHSQLYDRWVRIESVPNALEQARKIAAILCGKVPRDEAAPWFWSDQYEIGLKMVGLSEGYDRIIVRGSLAQPDFSVFYLQGDRVLAVDTVNRPVEFNQSKQIITDRLPVEPNLLGDESVPLKEIIAAAKAELSSA
notes: native purification from camphor-grown cells; FAD flavoprotein; CAM plasmid-coded
Km [7, 11]: 5.9 µM
kcat [7, 11]: 102 s⁻¹
